In US20030232013A1, “Therapeutic and diagnostic targeting of cancers cells with tumor homing peptides” (priority 2002, published 2003) one finds IC50 data, which are given here for two compounds.

SMILES strings stand for the structures. Where two headings read alike, the source gives them in different places. Bridge positions count the residues as written; N and C are the ends. Square brackets hold non-standard residues; d marks the D form. Peptide text beside a SMILES is read from it. Ahx = NCCCCCC(=O)O

In experiment [1] the test system is H69 (Human) lung cancer cells. Put plainly: In vitro competitive cell binding assay, H69. The conditions noted are these: competitive binding vs. ^125I-Tyr^5-6-Ahx-Phe^19-STh or ^125I-Tyr^5-Phe^19-STh. As for the experimental part: (§1) In Vitro Competitive Cell Binding Assay. The IC50 values of both metallated and non-metallated STh conjugates were determined in human cancer cells by a competitive displacement cell binding assay using ^125I-STh (^125I-Tyr^5-Phe^19-STh or ^125I-Tyr^5-6-Ahx-Phe^19-STh). […] After the incubation, the reaction medium was aspirated and cells were washed three times with media. The radioactivity bound to the cells was counted in a Packard Riastar gamma counting system. The ^125I-STh bound to cells was plotted vs. increasing concentrations of STh conjugate to determine the respective IC50 values (Table 3). For statistical considerations, three separate in vitro cell binding experiments with each conjugate were performed in duplicate.

Experiment [2] concerns MB-468 (Human) breast cancer cells. The experiment can be described thus: In vitro competitive cell binding assay, MB-468. The following applies: competitive binding vs. ^125I-Tyr^5-6-Ahx-Phe^19-STh or ^125I-Tyr^5-Phe^19-STh. The protocol: as §1
The test system of experiment [3] is T47D (Human) breast cancer cells. The experiment can be described thus: In vitro competitive cell binding assay, T47D. As for the experimental part: as §1
Experiment [4] concerns MB-231 (Human) breast cancer cells. The experiment can be described thus: In vitro competitive cell binding assay, MB-231. The protocol:
as §1

Experiment [5] deals with OVCAR-3 (Human) ovarian cancer cells. Put plainly: In vitro competitive cell binding assay, OVCAR-3. The following applies: competitive binding vs. ^125I-Tyr^5-6-Ahx-Phe^19-STh or ^125I-Tyr^5-Phe^19-STh. As for the experimental part: as §1
The test system of experiment [6] is CFPAC-1 (Human) pancreatic cancer cells. Put plainly: In vitro competitive cell binding assay, CFPAC-1. The conditions noted are these: competitive binding vs. ^125I-Tyr^5-6-Ahx-Phe^19-STh or ^125I-Tyr^5-Phe^19-STh. As for the experimental part: as §1
Experiment [7] has as its system CAPAN-1 (Human) pancreatic cancer cells. The experiment can be described thus: In vitro competitive cell binding assay, CAPAN-1. The conditions noted are these: competitive binding vs. ^125I-Tyr^5-6-Ahx-Phe^19-STh or ^125I-Tyr^5-Phe^19-STh. As for the experimental part:
as §1

Experiment [8] has as its system PC-3 (Human) prostate cancer cells. The experiment can be described thus: In vitro competitive cell binding assay, PC-3. The conditions noted are these: competitive binding vs. ^125I-Tyr^5-6-Ahx-Phe^19-STh or ^125I-Tyr^5-Phe^19-STh. The protocol: as §1
The subject of experiment [9] is MCF-7 (Human) breast cancer cells. Put plainly: In vitro competitive cell binding assay, MCF-7. The following applies: competitive binding vs. ^125I-Tyr^5-6-Ahx-Phe^19-STh or ^125I-Tyr^5-Phe^19-STh. As for the experimental part: as §1
For experiment [10], the system named is A375 (Human) melanoma cells. Put plainly: In vitro competitive cell binding assay, A375. The conditions noted are these: competitive binding vs. ^125I-Tyr^5-6-Ahx-Phe^19-STh or ^125I-Tyr^5-Phe^19-STh. As for the experimental part:
as §1

On to `CC(C)C[C@@H]1NC(=O)[C@H](CCC(=O)O)NC(=O)[C@@H]2CSSC[C@@H]3NC(=O)[C@H](C)NC(=O)[C@@H]4CCCN4C(=O)[C@H](CC(N)=O)NC(=O)[C@H](CSSC[C@H](NC(=O)[C@H](Cc4ccc(O)cc4)NC(=O)[C@H](CC(N)=O)NC(=O)[C@H](CO)NC(=O)[C@H](CO)NC(=O)[C@@H](N)CC(N)=O)C(=O)N2)NC(=O)[C@H](CSSC[C@@H](C(=O)N[C@@H](Cc2ccccc2)C(=O)O)NC(=O)CNC(=O)[C@H]([C@@H](C)O)NC3=O)NC1=O` [Phe^19-STh] (H-NSSNYCCELCCNPACTGCF-OH; disulfide 6-11, 7-15, 10-18), for which the IC50 in experiment [1] turned out to be 4.5 ± 1.7 nM; in experiment [2] it was 2.8 nM; in experiment [3] (competitive binding vs ^125-Tyr-6-Ahx-Phe^19-STh, read-out: IC50, T-47D (FIG. 5)) it was 3 ± 1.7 nM; in experiment [4] (competitive binding vs ^125-Tyr-6-Ahx-Phe^19-STh, read-out: IC50, MB-231 (FIG. 5)), 5.2 ± 1.3 nM; in [5] it was 3.2 nM.

For `CC(C)C[C@@H]1NC(=O)[C@H](CCC(=O)O)NC(=O)[C@@H]2CSSC[C@@H]3NC(=O)[C@H](C)NC(=O)[C@@H]4CCCN4C(=O)[C@H](CC(N)=O)NC(=O)[C@H](CSSC[C@H](NC(=O)[C@H](Cc4ccc(O)cc4)NC(=O)[C@H](CC(N)=O)NC(=O)[C@H](CO)NC(=O)[C@H](CO)NC(=O)[C@H](CC(N)=O)NC(=O)CCCCCN)C(=O)N2)NC(=O)[C@H](CSSC[C@@H](C(=O)N[C@@H](Cc2ccccc2)C(=O)O)NC(=O)CNC(=O)[C@H]([C@@H](C)O)NC3=O)NC1=O` [6-Ahx-Phe^19-STh] (H-[Ahx]NSSNYCCELCCNPACTGCF-OH; disulfide 7-12, 8-16, 11-19 (inferred); N-terminus assumed), the IC50 stood at 4.4 ± 1.5 nM in [6]; 5.6 ± 0.9 nM in [3] (competitive binding vs. ^125I-Tyr^5-6-Ahx-Phe^19-STh or ^125I-Tyr^5-Phe^19-STh, read-out: In vitro IC50, Breast T47D (Human)); 4.5 nM in [7]; 3.1 nM in [8]; 4.6 ± 2.8 nM in experiment [9]; 6.4 ± 2.9 nM in experiment [10]. For the same compound, the IC50 in experiment [4] (competitive binding vs. ^125I-Tyr^5-6-Ahx-Phe^19-STh or ^125I-Tyr^5-Phe^19-STh, read-out: In vitro IC50, Breast MB-231 (Human)) is 5.2 ± 1.5 nM.
